Experimental data reported in patent US10072023B2, “Diarylethene compounds and uses thereof” (SWITCH MATERIALS, INC., priority 2011, dated 2018).

Assay: Absorbance at photostationary state (PSS) under simulated sunlight or 365 nm light
Format: physicochemical
Set-up: λ max: unit not given here
Conditions: for Absorbance at PSS, 365 nm: 365 nm light source; for Absorbance at PSS, 365 nm / Absorbance at PSS, full / Absorbance at PSS, +UV / λ max: 2.0×10^−5 M in triglyme; for sensitivity index: ratio of PSS under 365 nm light to PSS under full spectrum light (without UV blocking film); for Absorbance at PSS, full: simulated sunlight (QSUN solar simulator), no UV blocking film; for Absorbance at PSS, +UV: simulated sunlight with UV blocking film (cutoff 370 nm); for λ max: wavelength of maximum absorbance in the visible range, ring-closed isoform
Protocol: Absorbance at a PSS for selected compounds was measured at 2.0×10^−5 M in triglyme in the absence (full) or presence (+UV) of a UV blocking film with a UV cutoff wavelength of 370 nm (10% transmission at 370 nm), using simulated sunlight (QSUN solar simulator) as a light source, or a 365 nm light source; these PSS are reported in Tables 1.5. […] “Switch” refers to the ability (yes or no) of the compound to be reversibly converted under photochromic and electrochromic conditions between a ring-open isomer and ring-closed isomer.
A sensitivity index (SI) is a ratio of the PSS under 365 nm light to the PSS under full spectrum light (without UV blocking film). SI is an indicator of the sensitivity of the compound to the composition of the incident light (a change in the ratio of UV and visible components)—photochemical ring-opening is induced by a portion of the visible light spectrum.
Photostationary State (PSS) UV/Vis spectra are obtained using an OceanOptics™ Spectrophotometer until absorption in the visible region of the spectrum stabilizes. A 2×10^−5M solution of compound in solvent is prepared, and photofaded using visible light until absorption in the visible region of the spectrum stabilizes. The sample is then irradiated with simulated sunlight (QSUN SS-150 Solar Simulator with xenon arc lamp) until the absorption spectrum stabilizes. To obtain PSS in the presence of a UV blocking film, a second sample is prepared and irradiated as described, with a UV blocking film inserted in the light path when irradiating.

Row | Structure (SMILES) | Absorbance at PSS, 365 nm | sensitivity index | Absorbance at PSS, full | Absorbance at PSS, +UV | λ max
1 | COc1ccc(-c2sc(-c3ccc(/C=C/c4ccccc4)cc3)cc2C2=C(c3cc(-c4ccc(/C=C/c5ccccc5)cc4)sc3-c3ccc(OC)cc3)C(F)(F)C(F)(F)C2(F)F)cc1 [S088, (E)-3,3′-(perfluorocyclopent-1-ene-1,2-diyl)bis(2-(4-methoxyphenyl)-5-(4-((E)-styryl)phenyl)thiophene)] | 0.457 | 2.26 | 0.202 | 0.132 | 656
2 | N#Cc1ccc(-c2cc(C3=C(c4cc(-c5ccc(C#N)cc5)sc4-c4ccc(C#N)cc4)C(F)(F)C(F)(F)C3(F)F)c(-c3ccc(C#N)cc3)s2)cc1 [S074, 3,3′-(perfluorocyclopent-1-ene-1,2-diyl)bis(2,5-bis(4-cyanophenyl)thiophene)] | 0.189 | 2.74 | 0.069 | 0.024 | 620
3 | Oc1ccc(-c2cc(C3=C(c4cc(-c5ccc(O)cc5)sc4-c4ccc(O)cc4)C(F)(F)C(F)(F)C3(F)F)c(-c3ccc(O)cc3)s2)cc1 [S084, 3,3′-(perfluorocyclopent-1-ene-1,2-diyl)bis(2,5-bis(4-hydroxyphenyl)thiophene)] | 0.23 | 2.56 | 0.09 | 0.051 | 625
4 | CC(C)(C)c1ccc(-c2cc(C3=C(c4cc(-c5ccc(C(C)(C)C)s5)sc4-c4cccs4)C(F)(F)C(F)(F)C3(F)F)c(-c3cccs3)s2)s1 [S170, 4,4′-(perfluorocyclopent-1-ene-1,2-diyl)bis(5′-tert-butyl-5-(thiopheyl)-2,2′-bithiophene)] | – | – | 0.287 | 0.182 | 645
5 | CC(C)(C)c1ccc(-c2oc3cc4c(cc3c2C2=C(c3c(-c5ccc(C(C)(C)C)cc5)oc5cc6c(cc35)OCO6)C(F)(F)C(F)(F)C2(F)F)OCO4)cc1 [S163, 7,7′-(perfluorocyclopent-1-ene-1,2-diyl)bis(6-(4-(tert-butyl)phenyl)-[1,3]dioxolo[4,5-f]benzofuran)] | 0.533 | 2.12 | 0.252 | 0.116 | 588
6 | CC(C)(C)c1ccc(-c2sc(-c3ccc(C(C)(C)O)cc3)cc2C2=C(c3cc(-c4ccc(C(C)(C)O)cc4)sc3-c3ccc(C(C)(C)C)cc3)C(F)(F)C(F)(F)C2(F)F)cc1 [S067, 2,2′-((4,4′-(perfluorocyclopent-1-ene-1,2-diyl)bis(5-(4-(tert-butyl)phenyl)thiophene-4,2-diyl))bis(4,1-phenylene))bis(propan-2-ol)] | 0.182 | 2.68 | 0.068 | 0.03 | 615
7 | FC1(F)C(c2cc(-c3ccc(Cl)s3)sc2-c2ccc(Cl)s2)=C(c2cc(-c3ccc(Cl)s3)sc2-c2ccc(Cl)s2)C(F)(F)C1(F)F [S026, 3′,3″″-(perfluorocyclopent-1-ene-1,2-diyl)bis(5,5″-dichloro-2,2′:5′,2″-terthiophene)] | 0.383 | 1.53 | 0.251 | 0.196 | 645
8 | FC1(F)C(c2nc(-c3ccccc3)sc2-c2ccccc2)=C(c2nc(-c3ccccc3)sc2-c2ccccc2)C(F)(F)C1(F)F [S035, 4,4′-(perfluorocyclopent-1-ene-1,2-diyl)bis(2,5-diphenylthiazole)] | 0.416 | 8.32 | 0.05 | 0.016 | 540
9 | COc1ccc(-c2sc(-c3ccc(C#N)cc3)cc2C2=C(c3cc(-c4ccc(C#N)cc4)sc3-c3ccc(OC)cc3)C(F)(F)C(F)(F)C2(F)F)cc1 [S085] | 0.187 | 1.16 | 0.161 | 0.08 | 640
10 | COc1ccc(-c2oc3cc(OC)ccc3c2C2=C(c3c(-c4ccc(OC)cc4)oc4cc(OC)ccc34)C(F)(F)C(F)(F)C2(F)F)cc1 [S140, 3,3′-(perfluorocyclopent-1-ene-1,2-diyl)bis(6-methoxy-2-(4-methoxyphenyl)benzofuran)] | 0.276 | 4.25 | 0.065 | 0.032 | 516
11 | COc1ccc2c(C3=C(c4c(-c5ccc(C(C)(C)C)cc5)oc5cc(OC)ccc45)C(F)(F)C(F)(F)C3(F)F)c(-c3ccc(C(C)(C)C)cc3)oc2c1 [S151, 3,3′-(perfluorocyclopent-1-ene-1,2-diyl)bis(2-(4-(tert-butyl)phenyl)-6-methoxybenzofuran)] | 0.403 | 3.80 | 0.106 | 0.056 | 514
12 | COc1ccc2c(C3=C(c4c(-c5ccc(OC)c(OC)c5)oc5cc(OC)ccc45)C(F)(F)C(F)(F)C3(F)F)c(-c3ccc(OC)c(OC)c3)oc2c1 [S155, 3,3′-(perfluorocyclopent-1-ene-1,2-diyl)bis(2-(3,4-dimethoxyphenyl)-6-methoxybenzofuran)] | 0.329 | 4.06 | 0.081 | 0.045 | 516
13 | CC(C)(C)c1ccc(-c2cc(C3=C(c4cc(-c5ccc(C(C)(C)C)s5)sc4-c4ccc(C(=O)O)s4)C(F)(F)C(F)(F)C3(F)F)c(-c3ccc(C(=O)O)s3)s2)s1 [S119] | 0.405 | – | 0.343 | 0.295 | –
14 | CCOc1ccc(-c2cc(C3=C(c4cc(-c5ccc(OCC)cc5)sc4-c4ccc(OCC)cc4)C(F)(F)C(F)(F)C3(F)F)c(-c3ccc(OCC)cc3)s2)cc1 [S091, 3,3′-(perfluorocyclopent-1-ene-1,2-diyl)bis(2,5-bis(4-ethoxyphenyl)thiophene)] | 0.287 | 1.75 | 0.164 | 0.095 | 629
15 | Cc1ccc(-c2sc(-c3cccs3)cc2C2=C(c3cc(-c4cccs4)sc3-c3ccc(C)s3)C(F)(F)C(F)(F)C2(F)F)s1 [S027, 3′,3″″-(perfluorocyclopent-1-ene-1,2-diyl)bis(5-methyl-2,2′:5′,2″-terthiophene)] | 0.281 | 1.80 | 0.156 | 0.116 | 645
16 | COc1ccc(-c2sc(-c3cc4ccccc4s3)cc2C2=C(c3cc(-c4cc5ccccc5s4)sc3-c3ccc(OC)cc3)C(F)(F)C(F)(F)C2(F)F)cc1 [S110, 2,2′-(4,4′-(perfluorocyclopent-1-ene-1,2-diyl)bis(5-(4-methoxyphenyl)thiophene-4,2-diyl))bis(benzo[b]thiophene)] | 0.414 | 1.20 | 0.346 | 0.221 | 653
17 | COc1ccc(-c2cc(C3=C(c4cc(-c5ccc(OC)cc5)sc4-c4ccc(C#N)cc4)C(F)(F)C(F)(F)C3(F)F)c(-c3ccc(C#N)cc3)s2)cc1 [S086, 4,4′-(3,3′-(perfluorocyclopent-1-ene-1,2-diyl)bis(5-(4-methoxyphenyl)thiophene-3,2-diyl))dibenzonitrile] | 0.231 | 2.01 | 0.115 | 0.071 | 610
18 | CC(=O)c1ccc(-c2cc(C3=C(c4cc(-c5ccccc5)sc4-c4ccc(C(C)(C)C)cc4)C(F)(F)C(F)(F)C3(F)F)c(-c3ccc(C(C)(C)C)cc3)s2)cc1 [S065, 1-(4-(5-(4-tert-butylphenyl)-4-(2-(2-(4-tert-butylphenyl)-5-phenylthiophen-3-yl)-3,3,4,4,5,5-hexafluorocyclopent-1-enyl)thiophen-2-yl)phenyl)ethanone] | 0.281 | 2.04 | 0.138 | 0.054 | 625
19 | Cc1ccc(-c2cc(C3=C(c4cc(-c5ccc(C)s5)sc4-c4ccc(C)s4)C(F)(F)C(F)(F)C3(F)F)c(-c3ccc(C)s3)s2)s1 [S007, 3′,3″″-(perfluorocyclopent-1-ene-1,2-diyl)bis(5,5″-dimethyl-2,2′:5′,2″-terthiophene)] | 0.353 | 1.67 | 0.212 | 0.154 | 650
